Consider two compounds from US20250188044A1 (HARBIN MEDISAN PHARMACEUTICAL CO., LTD., priority 2021, published 2025).

Molecules are shown by their SMILES. Entries after “also recorded” stand apart in the source; their conditions may differ. A value given as a limit tells only on which side of the number the result lay.

Data set [1] concerns HepG2 cells. The experiment in a line: Lipid metabolism-associated gene expression of HepG2 cells (qPCR). Particulars: 8 nM, nM, and 200 nM, 12 h, vs. blank control (FIGS. 1 and 2). Format: cell-based, human. How it is done: HepG2 cells (human hepatoma cells) were cultured in a 6-well cell culture plate and subjected to adherent culture overnight. […] The old medium was discarded and replaced with drug-containing medium of different concentrations (complete medium without the compound for the blank control group). After dosing, the cells were incubated for 12 h. The medium was discarded and total RNA was extracted by the phenol-chloroform method. After reverse transcription, the real-time quantitative fluorescent PCR experiment (RNA extraction, reverse transcription, quantitative PCR reagents were all purchased from Nanjing Vazyme Biotech Co., Ltd.) was performed using ACTB as an internal reference, and the expression of PDK4, ACADVL, and CPT1A, which are important genes in oxidative metabolism of lipids, was detected according to the steps in the product instructions (the primer sequences are shown in Table 7). […] Some other compounds of the present invention also have similar activity.
(Real-time PCR tracks product formation cycle by cycle.)

Data set [2] concerns PPARα/δ downstream target gene. The following applies: mice, 10 mg/kg intragastric, four consecutive days (FIG. 15).
Data set [3] concerns NASH model mice. The experiment in a line: CDAA-induced NASH mouse model. Format: in vivo, C57 mice.
Data set [4] can be described thus: Pharmacokinetic evaluation in rats. Format: in vivo, SD rats. How it is done: Animals: 6 male SD rats, SPF grade, sourced from the animal repository of Shanghai Medicilon research institution.
The dose in the oral administration group was 10 mpk, and the dose in the intravenous injection group was 2 mpk.
All samples were centrifuged at 18,000 g for 7 min in a low-temperature centrifuge, and plasma was isolated. The content of the compound in the plasma was determined by LC-MS/MS-18, and relevant pharmacokinetic parameters were calculated from the plasma concentration data at different time points.

Data set [5] can be described thus: Metabolic stability in human liver microsomes. It is filed as in vitro ADME. In general terms: Microsomes from liver hold many membrane-bound enzymes, among them those of drug oxidation.
Data set [6] has as its system nuclear receptors other than PPAR (RARα, RARγ, RARβ, FXR, RXRα, RXRγ, RXRβ, VDR, LXRα, LXRβ, THβ, PXR, CAR). The experiment in a line: Nuclear receptor selectivity, Gal4-LBD reporter gene assays in Cos-7 cells. Format: cell-based, human. Particulars: 1 μM, relative agonistic rate (FIG. 16). (In a reporter assay the amount or activity of a reporter protein is the signal.)

Data set [7] relates to liver fibrosis model mice. The experiment in a line: Carbon tetrachloride-induced liver fibrosis mouse model. It is filed as in vivo, C57 mice. The protocol:
Animals: 60 male C57 mice, SPF grade, 8 weeks old, weighing about 20 g, purchased from Beijing Vital River Laboratory Animal Technology Co., Ltd. All animals were kept on a 12-h alternating circadian rhythm and were fed ad libitum.
Reagent: positive drug IVA337 (Pan-PPAR agonist, currently in an anti-NASH phase II clinical trial), which was prepared according to the method in the literature (J. Med. Chem., 2018, 61, 2246); carbon tetrachloride (purchased from Shanghai Aladdin Biochemical Technology Co., Ltd.), and sunflower seed oil (purchased from Shanghai Yuanye Biotech Co., Ltd.).
. Mice were given food and water normally and subjected to modeling for 3 weeks. The model group and the administration groups were each injected twice a week with a 25% CCl4 oil solution at a dose of 2 mL/kg, and the control group was injected with an oil solvent at the same volume.
. The administration was performed for 3 weeks, and the mice were given food and water normally. The mice in each group were weighed daily, and their body weight, hair, feces, and activity were carefully observed and recorded.
At 30 h after the sixth injection of CCl4, the mice were dissected for the samples. Blood was taken from the orbit, and then the liver was taken after the mice were sacrificed. The right lobular tissue of liver was fixed with 4% paraformaldehyde and used for HE staining of sections.
The pretreated tissues were sent to ServiceBio Biotechnology Co., Ltd. to make HE stained sections and Sirius red stained sections.
The liver tissue stored at −80° C. was taken out and placed in liquid nitrogen, about 10 mg of liver tissue was rapidly cut off, homogenized with a homogenizer after about 500 μL of precooled tissue lysis buffer was added, and then lysed on ice for 30 min. The lysate was centrifuged at 12,000 rpm for 15 min at 4° C., and 170 μL of supernatant was added to a clean EP tube, from which 10 μL of supernatant was taken for BCA protein quantification. 40 μL of 5*loading buffer was added to the rest of protein supernatant for boiling for denaturation, followed by SDS-PAGE electrophoresis, and the protein was transferred onto a PVDF membrane for incubation and elution of related antibodies. Finally, imaging analysis was performed by using a chemiluminescence apparatus.
The liver tissue stored at −80° C. was taken out and placed in liquid nitrogen, about 200 mg of the liver tissue was rapidly cut off, and hydroxyproline in the liver tissue was detected according to the method in the product instructions (Beijing Solarbio Science & Technology Co., Ltd., BC0255).

The subject of data set [8] is nonalcoholic steatohepatitis (NASH). The following applies: NCT02704403; cited from earlier work.

`Cc1cc(Cn2ncn(-c3ccc(OC(F)(F)F)cc3)c2=O)cc(C)c1OC(C)(C)C(=O)O` [Compound 61, 2-(2,6-Dimethyl-4-((5-oxo-4-(4-(trifluoromethoxy)phenyl)-4,5-dihydro-1H-1,2,4-triazo 1-1-yl)methyl)phenoxy)-2-methylpropionic acid]: the “expression of PDK4, ACADVL, and CPT1A” value in data set [1] was “improve the expression of PDK4, ACADVL, and CPT1A in a dose-dependent manner with significance”. In addition, the “target genes significantly upregulated in the skeletal muscle” value in data set [2] turned out to be 16. Further, the “anti-NASH efficacy compared with GFT505 and IVA337 at the same dose” value in data set [3] (NASH model mice, 10 mg/kg intragastric daily, 6 weeks, 10 mg/kg) is “stronger liver enzyme-lowering effect than GFT505 and IVA337 at the same dose; also recorded: stronger effect in resisting liver inflammation than GFT505 and IVA337; also recorded: stronger effect in resisting liver fibrosis than GFT505 and IVA337; also recorded: better effect than GFT505 and IVA337 at the same dose; also recorded: better efficacy than positive control drugs GFT505 and IVA337 at the same dose; also recorded: better anti-NASH efficacy than clinically investigational PPAR agonists GFT505 and IVA337 at the same dose”. In addition, the “liver mRNA expression levels of Tnf, IIIb, Ccl4, and Adgre1” value in data set [3] (NASH model mice, 3, 10, 30 mg/kg intragastric daily, 6 weeks (FIG. 6)) is “inhibit the increase of mRNA expression levels of Tnf, IIIb, Ccl4, and Adgre1 due to modeling in a dose-dependent manner”. Moreover, in data set [3] (NASH model mice, 3, 10, 30 mg/kg intragastric daily, 6 weeks (FIG. 7)), the “liver mRNA expression levels of Acta2, Tgfb1, Collal, and Col3a1” value was “significantly inhibit the increase of mRNA expression levels of Acta2, Tgfb1, Collal, and Col3a1 due to modeling”. For the same compound, the “levels of ALT and AST in serum” value in data set [3] (NASH model mice, 3, 10, 30 mg/kg intragastric daily, 6 weeks (FIGS. 4 and 5)) is “down-regulate the levels of ALT and AST in serum of NASH model mice in a dose-dependent manner”. The “HE staining: infiltration of inflammatory cells in the portal area” value in data set [3] (NASH model mice, liver sections (FIG. 8)) is “reduce the infiltration of inflammatory cells in the portal area due to modeling in a dose-dependent manner”; in data set [7] (CCl4 liver fibrosis model mice, liver sections (FIG. 13)), “reduce the infiltration of inflammatory cells in the portal area due to modeling in a dose-dependent manner”. Besides, the “Sirius red staining: collagen deposition” value is on record as “reduce collagen deposition due to modeling in a dose-dependent manner” in data set [3] (NASH model mice, liver sections (FIG. 9)) and “reduce collagen deposition due to modeling in a dose-dependent manner” in data set [7] (CCl4 liver fibrosis model mice, liver sections (FIG. 14)). Besides, the “Oil red staining: lipid accumulation” value in data set [3] (NASH model mice, liver sections (FIG. 10)) is reported as “reduce lipid accumulation due to modeling in a dose-dependent manner”. For the same compound, the “Time-to-peak Tmax” value in data set [4] (intravenous injection, 2 mpk) is recorded as 0.08 ± 0.00 h; in data set [4] (oral administration, 10 mpk), 1.42 ± 1.01 h. Further, in data set [4] (oral administration, 10 mpk), the “Bioavailability F” value was found to be 86.35%. In addition, the “metabolic stability in human liver microsomes (in words)” value in data set [5] (human liver microsomes) was “very good metabolic stability in human liver microsomes”. In addition, the half-life (as a rule, how long it takes for the measured level to halve) in data set [5] (human liver microsomes 0.75 mg/mL, NADPH, 0-60 min) is more than 2 h. Further, in data set [6], the “agonistic effect on nuclear receptors other than PPAR” value is on record as “no significant agonistic effect on nuclear receptors other than PPAR”. For the same compound, the “anti-liver fibrosis efficacy compared with IVA337 at the same dose” value in data set [7] (CCl4 liver fibrosis model mice, 10 mg/kg intragastric daily, 3 weeks, 10 mg/kg) is listed as “stronger effect than IVA337 at the same dose; also recorded: better effect than IVA337 at the same dose; also recorded: better efficacy than a positive control drug IVA337 at the same dose”. The hepatic hydroxyproline level entry in data set [7] (CCl4 liver fibrosis model mice, 3, 10, 30 mg/kg intragastric daily, 3 weeks (FIG. 11)) is reported as “down-regulate the hepatic hydroxyproline level of liver fibrosis model mice in a dose-dependent manner”. Further, the “αSMA and Collal protein levels in liver” value in data set [7] (CCl4 liver fibrosis model mice, Western blot (FIG. 12)) was “inhibit the increase of αSMA and Collal protein levels due to modeling in a dose-dependent manner”.
With `CSc1ccc(C(=O)/C=C/c2cc(C)c(OC(C)(C)C(=O)O)c(C)c2)cc1` [GFT505, Elafibranor], in data set [8], the “efficacy in anti-NASH phase III clinical trial, interim analysis” value is reported as “substantially ineffective”.
